Ki and inhibition data for 66 compounds are collected here from ChEMBL document CHEMBL1126680, “Structure-activity relationships of 8-styrylxanthines as A2-selective adenosine antagonists” (J Med Chem, 1993).

Assay type in all cases: tissue-based
The target of one test is Adenosine A2 receptor (Rattus norvegicus, UniProt P29276+P30543). Briefly: Binding affinity against adenosine A2 receptor in rat brain using [3H]- CGS 21680 as radioligand.
The target in a further test is T1, Adenosine receptor A1 (Rattus norvegicus, UniProt P25099).
T1 sequence (P25099 whole entry): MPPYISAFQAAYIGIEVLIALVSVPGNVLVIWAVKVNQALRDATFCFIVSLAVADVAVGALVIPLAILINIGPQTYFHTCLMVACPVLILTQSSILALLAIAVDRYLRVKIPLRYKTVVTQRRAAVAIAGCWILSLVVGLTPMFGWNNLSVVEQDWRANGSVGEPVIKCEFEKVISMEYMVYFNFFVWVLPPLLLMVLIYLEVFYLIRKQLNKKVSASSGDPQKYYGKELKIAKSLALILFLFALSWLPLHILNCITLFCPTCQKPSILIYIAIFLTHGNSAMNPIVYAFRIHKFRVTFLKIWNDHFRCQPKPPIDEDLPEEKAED
The experiment in a line: Affinity against Adenosine A1 receptor in rat brain using [3H]- PIA as radioligand.

Test [1] has as its target T2, Adenosine receptor A1 (Rattus norvegicus) (UniProt P25099).
T2 sequence (whole entry): T1 sequence (P25099 whole entry)
Briefly: Binding affinity against Adenosine A1 receptor in rat brain using [3H]- PIA. To be noted: concentration not given here.

Test [2] has as its target Adenosine A2 receptor (Rattus norvegicus) (UniProt P29276+P30543). The experiment in a line: Binding affinity against Adenosine A2 receptor in rat brain using [3H]- CGS 21680. The conditions noted are these: concentration not given here.

Each structure is given as a SMILES string.

As a reminder, the Ki is a dissociation constant, usually derived from enzyme kinetics or from competition with a known ligand. A lower Ki goes with higher affinity. In turn, `COc1cccc(/C=C/c2nc3c(c(=O)n(C)c(=O)n3C)n2C)c1OC` registered a Ki on Adenosine A2 receptor of 716 nM.
On the same count and under the same terms, next, `CN(C)c1ccc(/C=C/c2nc3c(=O)n(C)c(=O)n(C)c3[nH]2)cc1`: 12800 nM.
Consider `C=CCn1c(=O)c2c(nc(/C=C/c3cc(OC)c(OC)c(OC)c3)n2C)n(CC=C)c1=O`, for which the Ki on Adenosine receptor A1 worked out at 1930 nM.
`CCCn1c(=O)c2nc(/C=C/c3cccc(F)c3)[nH]c2n(CCC)c1=O` showed a Ki on Adenosine A2 receptor of 153 nM.
Regarding `Cn1c(=O)c2nc(/C=C/c3cccc(C(F)(F)F)c3)[nH]c2n(C)c1=O`, the Ki at Adenosine A2 receptor worked out at 343 nM.
In the case of `CCCn1c(=O)c2nc(/C=C/c3ccc(OC)c(OC)c3OC)[nH]c2n(CCC)c1=O`, the Ki on Adenosine A2 receptor is listed as 64 nM.
On the same count and under the same terms, next, `Cn1c(=O)c2nc(/C=C/c3cccc(F)c3)[nH]c2n(C)c1=O`: 516 nM; `CCCn1c(=O)c2nc(/C=C/c3cc(F)cc(F)c3)[nH]c2n(CCC)c1=O`: 346 nM.
As to `Cn1c(=O)c2nc(/C=C/c3ccccc3)[nH]c2n(C)c1=O`, at Adenosine A2 receptor, the Ki came out at 291 nM.
In turn, `Cn1c(=O)c2c(nc(/C=C/c3cccc([N+](=O)[O-])c3)n2C)n(C)c1=O` returned a Ki at Adenosine A2 receptor of 195 nM.
Turning to `Cn1c(=O)c2c(nc(/C=C/c3cccc(NC(=O)OC(C)(C)C)c3)n2C)n(C)c1=O`, the Ki is 23600 nM on Adenosine receptor A1 and 784 nM at Adenosine A2 receptor.
As for `CCCn1c(=O)c2c(nc(/C=C/c3cccc([N+](=O)[O-])c3)n2C)n(CCC)c1=O`, the Ki on Adenosine A2 receptor is recorded as 56.2 nM.
As usually defined, the inhibition is the relative decrease from the control value, in per cent. Lower therefore signals a weak effect. As for `CN(C)c1ccc(/C=C/c2nc3c(c(=O)n(C)c(=O)n3C)n2C)cc1`, the Ki at Adenosine A2 receptor was determined as 9270 nM. The compound also yielded an inhibition in test [1] of 5.6%.
In the case of `CCn1c(/C=C/c2cc(OC)c(OC)c(OC)c2)nc2c1c(=O)n(C)c(=O)n2C`, on Adenosine A2 receptor, the Ki was 882 nM.
In turn, `COc1cc(/C=C/c2nc3c(c(=O)n(C)c(=O)n3C)n2C)cc(OC)c1OCc1ccccc1` registered a Ki on Adenosine A2 receptor of 139 nM.
`C#CCn1c(/C=C/c2cc(OC)c(OC)c(OC)c2)nc2c1c(=O)n(C)c(=O)n2C` came in with a Ki on Adenosine A2 receptor of 525 nM.
For the compound `COc1cc(/C=C/c2nc3c(c(=O)n(C)c(=O)n3C)n2C)cc(OC)c1OC/C=C/CNC(C)=O`, the Ki at Adenosine A2 receptor was determined as 216 nM. Further, the inhibition in test [1] amounted to 17%.
On to `COc1ccc(/C=C/c2nc3c(=O)n(C)c(=O)n(C)c3[nH]2)cc1OC`, for which, at Adenosine A2 receptor, the Ki is reported as 1100 nM.
In the case of `CCCn1c(=O)c2c(nc(/C=C/c3cc(OC)cc(OC)c3)n2C)n(CCC)c1=O`, the inhibitory constant (Ki) on Adenosine A2 receptor was 24 nM.
As for `CCCn1c(=O)c2nc(/C=C/c3cc(OC)c(OC)cc3OC)[nH]c2n(CCC)c1=O`, on Adenosine A2 receptor, the Ki amounted to 323 nM.
In turn, `Cn1c(=O)c2c(nc(/C=C/c3cccc(NC(=O)CCC(=O)O)c3)n2C)n(C)c1=O` registered a Ki on Adenosine A2 receptor of 143 nM.
`COc1cc(/C=C/c2nc3c(=O)n(C)c(=O)n(C)c3[nH]2)cc(OC)c1OC` displayed an inhibition constant Ki on Adenosine receptor A1 of 2280 nM.
As for `COc1cccc2cc(-c3nc4c(=O)n(C)c(=O)n(C)c4[nH]3)oc12`, the Ki turned out to be 1770 nM at Adenosine receptor A1 and 3900 nM at Adenosine A2 receptor.
Consider `Cn1c(=O)c2nc(/C=C/c3cccc([N+](=O)[O-])c3)[nH]c2n(C)c1=O`, for which the Ki on Adenosine A2 receptor amounted to 438 nM.
`COc1cc(/C=C/c2nc3c(c(=O)n(C)c(=O)n3C)n2C)cc(OC)c1OC(C)=O`: the Ki on Adenosine A2 receptor is reported as 68 nM.
`Cn1c(=O)c2c(nc(/C=C/c3cccc(C(F)(F)F)c3)n2C)n(C)c1=O` yielded a Ki on Adenosine A2 receptor of 134 nM.
Compound `COc1cc(/C=C/c2nc3c(c(=O)n(C)c(=O)n3C)n2CCc2ccccc2)cc(OC)c1OC` came in with an inhibition constant (Ki) on Adenosine A2 receptor of 14 nM.
`CCCn1c(=O)c2c(nc(/C=C/c3cc(F)cc(F)c3)n2C)n(CCC)c1=O`: the Ki on Adenosine A2 receptor is given as 53 nM.
Still for that read-out and setting: next, `CCCn1c(=O)c2nc(/C=C/c3cccc(Cl)c3)[nH]c2n(CCC)c1=O`: 216 nM; `COc1ccc(/C=C/c2nc3c(c(=O)n(C)c(=O)n3C)n2C)cc1OC`: 197 nM.
On to `COc1ccccc1/C=C/c1nc2c(c(=O)n(C)c(=O)n2C)n1C`, for which the Ki on Adenosine A2 receptor is given as 267 nM.
As for `COc1ccccc1/C=C/c1nc2c(=O)n(C)c(=O)n(C)c2[nH]1`, at Adenosine A2 receptor, the Ki is 645 nM.
Same read-out and setting: next, `CCCn1c(=O)c2c(nc(/C=C/c3cccc(N)c3)n2C)n(CCC)c1=O`: 18.9 nM.
Regarding `COc1cc(/C=C/c2nc3c(c(=O)n(C)c(=O)n3C)n2C)cc(OC)c1OC`, on Adenosine receptor A1, the Ki was 9200 nM.
In turn, `CCCn1c(=O)c2nc(/C=C/c3cc(OC)cc(OC)c3)[nH]c2n(CCC)c1=O` showed a Ki on Adenosine A2 receptor of 210 nM.
Compound `CCCn1c(=O)c2c(nc(/C=C/c3cc(OC)c(OC)cc3OC)n2C)n(CCC)c1=O` had a Ki on Adenosine A2 receptor of 327 nM.
On to `COc1cc(/C=C/c2nc3c(c(=O)n(C)c(=O)n3C)n2C)cc(OC)c1OC/C=C/CN`, for which, at Adenosine A2 receptor, the Ki is recorded as 228 nM.
With `Cn1c(=O)c2c(nc(CCc3cccc(N)c3)n2C)n(C)c1=O`, the Ki on Adenosine A2 receptor is 18000 nM. Also, in test [1], the inhibition amounted to 15%.
Turning to `Cn1c(=O)c2c(nc(/C=C/c3cccc(N(C(=O)OC(C)(C)C)C(=O)OC(C)(C)C)c3)n2C)n(C)c1=O`, the Ki on Adenosine A2 receptor came to 740 nM.
`COc1cc(/C=C/c2nc3c(c(=O)n(C)c(=O)n3C)n2CCO)cc(OC)c1OC`: the inhibition in test [2] was 22%; in test [1], 26%.
As to `COc1cc(/C=C/c2nc3c(c(=O)n(C)c(=O)n3C)n2C)cc(OC)c1`, on Adenosine A2 receptor, the Ki was determined as 75.3 nM. In test [1], this compound yielded an inhibition of 12.5%.
As for `Cn1c(=O)c2nc(/C=C/c3cccc(O)c3)[nH]c2n(C)c1=O`, on Adenosine A2 receptor, the Ki was found to be 303 nM.
`Cn1c(=O)c2c(nc(/C=C/c3cc(F)cc(F)c3)n2C)n(C)c1=O`: the inhibition constant Ki at Adenosine A2 receptor stood at 65 nM.
On Adenosine A2 receptor, `COc1cc(/C=C/c2nc3c(c(=O)n(C)c(=O)n3C)n2C)cc(OC)c1O` yielded an inhibition constant Ki of 450 nM.
The same measure, in the same setting: next, `Cn1c(=O)c2nc(/C=C/c3cc(F)cc(F)c3)[nH]c2n(C)c1=O`: 366 nM; `Cn1c(=O)c2c(nc(/C=C/c3cccc(N)c3)n2C)n(C)c1=O`: 57 nM; `CCCn1c(=O)c2c(nc(/C=C/c3ccc(OC)c(OC)c3OC)n2C)n(CCC)c1=O`: 68.5 nM.
For `CCCn1c(=O)c2c(nc(/C=C/c3cccc(F)c3)n2C)n(CCC)c1=O`, on Adenosine A2 receptor, the Ki is 33 nM.
`COc1ccc(/C=C/c2nc3c(=O)n(C)c(=O)n(C)c3[nH]2)c(OC)c1OC`: the Ki at Adenosine A2 receptor turned out to be 1610 nM. The inhibition in test [1] came to 26%.
On Adenosine A2 receptor, `COc1ccc(/C=C/c2nc3c(c(=O)n(C)c(=O)n3C)n2C)cc1` showed a Ki of 327 nM.
For `CC(=O)Nc1cccc(/C=C/c2nc3c(c(=O)n(C)c(=O)n3C)n2C)c1`, on Adenosine A2 receptor, the Ki is 39 nM.
In the case of `COc1cc(/C=C/c2nc3c(=O)n(C)c(=O)n(C)c3[nH]2)cc(OC)c1`, the inhibition constant (Ki) at Adenosine A2 receptor was 120 nM.
The compound `COc1cc(/C=C/c2nc3c(c(=O)n(C)c(=O)n3C)n2C)cc(OC)c1OCCCCN` had a Ki on Adenosine A2 receptor of 173 nM.
The same measure, in the same setting: next, `COc1cccc2cc(-c3nc4c(c(=O)n(C)c(=O)n4C)n3C)oc12`: 4740 nM; `COc1cccc(/C=C/c2nc3c(=O)n(C)c(=O)n(C)c3[nH]2)c1OC`: 600 nM.
Regarding `COc1cc(/C=C/c2nc3c(c(=O)n(C)c(=O)n3C)n2C)cc(OC)c1OCCCCNC(=O)OC(C)(C)C`, the Ki on Adenosine A2 receptor is recorded as 265 nM.
`COc1cc(/C=C/c2nc3c(c(=O)n(C)c(=O)n3C)n2C)cc(OC)c1OC/C=C/CNC(=O)OC(C)(C)C` showed a Ki on Adenosine A2 receptor of 353 nM. Further, in test [1], the inhibition came out at 11%.
In turn, `CCCn1c(=O)c2nc(/C=C/c3ccccc3)[nH]c2n(CCC)c1=O` returned an inhibition constant (Ki) on Adenosine A2 receptor of 44 nM.
Still for that read-out and setting: next, `COc1ccc(/C=C/c2nc3c(c(=O)n(C)c(=O)n3C)n2C)c(OC)c1OC`: 206 nM; `COc1ccc(/C=C/c2nc3c(=O)n(C)c(=O)n(C)c3[nH]2)cc1`: 472 nM; `Cn1c(=O)c2nc(/C=C/c3cccc(N)c3)[nH]c2n(C)c1=O`: 202 nM.
With `Cn1c(=O)c2c(nc(/C=C/c3cccc(F)c3)n2C)n(C)c1=O`, the inhibition constant (Ki) at Adenosine A2 receptor came out at 83 nM.
The same measure, in the same setting: next, `COc1cccc(/C=C/c2nc3c(c(=O)n(C)c(=O)n3C)n2C)c1`: 84.8 nM.
`Cn1c(=O)c2nc(/C(F)=C/c3ccccc3)[nH]c2n(C)c1=O` had a Ki at Adenosine A2 receptor of 2110 nM.
Consider `COc1cccc(/C=C/c2nc3c(=O)n(C)c(=O)n(C)c3[nH]2)c1`, for which the Ki on Adenosine A2 receptor came out at 378 nM.
Compound `CCn1c(=O)c2nc(/C=C/c3cc(OC)c(OC)c(OC)c3)[nH]c2n(CC)c1=O` returned a Ki on Adenosine A2 receptor of 269 nM.
